Laboratory results as given in EP2792360A1, “(1aR,12bS)-8-cyclohexyl-11-fluoro-N-((1-methylcyclopropyl)sulfonyl)-1a-((3-methyl-3,8-diazabicyclo[3.2.1]oct-8-yl)carbonyl)-1,1a,2,2b-tetrahydrocyclopropa[d]indolo[2,1-a][2]benzazepine-5-carboxamide for use in treating HCV” (IP Gesellschaft für Management mbH, priority 2013, dated 2014).
Blank lines part the entries; values can stand above or below the compound they belong to.

Legend:
[1] = Stability experiment for polymorph Form A of Compound 1 (stability chamber); format: physicochemical; conditions: 40 °C for 30 days
Protocol: CHARACTERIZATION EXAMPLE 13 - Stability Experiment for Polymorph Form A ({drug1a}) of Compound 1 (drug 1): The physical stability of Form A ({drug1a}) of Compound 1 (drug 1) was determined as follows. Compound 1 (drug 1) prepared according to Preparation Example 3 was analyzed by pXRD, DSC, HPLC and 1H-NMR and found to be of pure crystal Form A ({drug1a}) of 99.9 % purity (by HPLC peak area at 230 nm detection wavelength). An aliquot of the sample (3.0 g) was placed in a primary polyethylene bag, the primary bag was flushed with nitrogen gas and sealed. The primary polyethylene bag was then placed in a secondary polyethylene bag which was again flushed with nitrogen gas and a silica gel sachet was placed between the inner and the outer bag. The double bagged material was then placed in a triple laminated aluminum pouch and placed in a stability chamber at 40 °C for 30 days. Analysis by HPLC and 1H-NMR of the resulting material indicated pure Form A ({drug1a}) of Compound 1 (drug 1) of 99.9 % purity (by HPLC peak area at 230 nm). […] The triclinic cell parameters were determined to be: a = 14.835(7) A, b = 15.216(8) A, c = 18.790(10) A, alpha = 90.306(7) °, beta = 93.619(7) °, gamma = 1 13.045(7) °, volume = 3893(3) A3. The space group was determined to be P-1. The molecular weight was 468.23 giving a calculated density of 1.598g/cm3, and µ(Mo) = 0.50mm"1 for Z = 8. […]

[2] = Relative stability (non-competitive and competitive interconversion) experiments of crystal forms of Compound 1
Protocol: For the non-competitive experiments, only a single starting crystal form was used to study the potential conversion to another more stabb form. […] The slurry was cooled to 25-30 °C, filtered, suction dried for 1 hour and dried in a vacuum oven at 70 °C and 8 kPa absolute pressure for 12 hours. […] The slurry was cooled to 25-30 °C, filtered, suction dried for 1 hour and dried in a vacuum oven at 70 °C and 8 kPa absolute pressure for 12 hours. […] The slurry was cooled to 25-30 °C, filtered, suction dried for 1 hour and dried in a vacuum oven at 70 °C and 8 kPa absolute pressure for 12 hours.

[3] = Hygroscopicity of solid forms of compound of formula (IV) (Ph. Eur. classification); format: physicochemical
Protocol: For the thermogravimetric analyses, approx. 5 - 10 mg of sample were placed in aluminum pans, accurately weighed and hermetically closed with perforation lids. […] The samples were then heated under a flow of nitrogen of about 50 mL/min using a heating rate of 5 K/min. The term "micronization" denotes a process whereby the particle size of a solid material is diminished to a d50 value of less than IOµm by the aid of a suitable method, such as milling, bashing or grinding. […] The term "anti-solvent crystallization" denotes a process wherein supers aturation and as a result thereof crystallisation is achieved by addition of an antisolvent to the product solution. The term "ambient conditions" denotes conditions as experienced in a standard laboratory, e.g. atmospheric pressure, air, ambient temperature between 18 °C and 28 °C, humidity between 30 %rH and 80 %rH. The term "hygroscopicity" describes the ability of a solid material to adsorb moisture. The hygroscopicity of a given API is characterized [European Pharmacopoeia - 6th Edition (2008), Chapter 5.11) by the increase in mass when the relative humidity is raised from 0 %rH to 90 %rH: o non-hygroscopic: weight increase Am < 0.2%; o slightly hygroscopic: weight increase 0.2% < Am < 2.0%; o hygroscopic: weight increase 2.0% < Am < 15.0%; o very hygroscopic: weight increase Am > 15.0%; o deliquescent: sufficient water is adsorbed to form a liquid. The IUPAC lamda convention (W.H. Powell, Pure & Appl. Chem. […] The bonding number "n" of a heteroatom is the sum of the total number of valence bonds to adjacent atoms, if any, and the number of attached hydrogen atoms. The bonding number of a heteroatom is standard when it has the value given in the following table: n=4: C, Si, Ge, Sn, Pb; n=3 B, N, P, As, Sb, Bi, n=2: O, S, Se, Te, Po; n=l; F, CI, Br, I, At. A nonstandard bonding number of a (neutral) heteroatom is indicated by the symbol "λη", where "n" is the bonding number. […]

[4] = Solid form stability of forms of compound of formula (IV) (Temperature / Humidity Controlled XRPD, storage, suspension); format: physicochemical
[5] = in vitro dissolution of micronized powders in SGF and FeSSIF (miniaturized, non-sink); format: physicochemical
Protocol: Example 28: in vitro Dissolution Results: The in vitro dissolution studies performed in this work were conducted in a miniaturized system with 100 mL dissolution medium per experiment. […] Simulated gastric fluid (SGF) was prepared with 2 g/L NaCl and 1 g/L Triton® X-100 in 0.1 N HCl. The resulting measured pH of SGF was 1.2. Simulated fed state intestinal fluid (FeSSIF) was prepared as previously reported in […]. et al. (Pharm. Res. […] Oral absorption of a drug compound from a solid dosage form is dependent on dissolution rate and solubility. […] Figure 21 of WO/2013/057124presents the dissolution profiles measured in simulated gastric fluid (SGF) and Figure 22 of WO/2013/057124shows the dissolution profiles in simulated fed state intestinal fluid (FeSSIF). […] Changes of pH values in the dissolution test samples taken at different time points were not observed. The ranking of the different solid forms with respect to dissolution speed and maximum drug concentration achieved was identical in both media. The differences in the dissolution profiles in SGF and FeSSIF can be explained by the different composition of the two media since the dissolution generally depends on a variety of factors such as pH, surfactant, buffer capacity, ionic strength, etc. […]

physchem = experiment: physchem
Protocol: Anal. Chem. Instrum. […] Drug Delivery Rev. […] The binding constant (K) of the gamma-CD inclusion complex ({drug4g}) was calculated from the initial straight line portion of the phase solubility diagram by linear regression, according to the following equation [T. Higuchi et al., Adv. Anal. Chem. Instrum.

- crystal form by pXRD and DSC after storage [1]: pure polymorphForm A
- purity (by HPLC peak area at 230 nm) after storage ([1]; double polyethylene bags under nitrogen in aluminum pouch, 99.9 % before storage): 99.9%
- crystal form of the resulting material ([2]; non-competitive, refluxed in deionized water at about 95 °C for 3 hours, pXRD, DSC, TGA, 1H-NMR): remained unchanged
Structure (SMILES): COc1ccc(Cl)c(S(=O)(=O)NC(=O)c2cn3cc(C(F)(F)F)cc(Cl)c3n2)c1 [Form A ({drug1a}), 8-chloro-N-[(2-chloro-5-methoxyphenyl)sulfonyl]-6-(trifluoromethyl)-imidazo[1,2-a]pyridine-2-carboxamide]
- relative thermodynamic stability of polymorph form ([2]; water heated to 95 °C or methanol heated to 55 °C): most thermodynamically stable polymorph form

Structure (SMILES): Cc1onc(-c2ccc(F)cc2)c1COc1ccc(C(=O)N2CCS(=O)(=O)CC2)cn1 [Form C ({drug4c}), (1,1-dioxo-1lambda6-thiomorpholin-4-yl)-{6-[3-(4-fluoro-phenyl)-5-methyl-isoxazol-4-ylmethoxy]-pyridin-3-yl]-methanone]
- hygroscopicity relative to Form A [3]: less hygroscopic than Form A
- behaviour in the presence of water in suspended state [4]: transforms into Form B
- thermodynamic stability of the solid form [4]: most stable polymorph overall
- phase change upon storage at 100 rH at ambient temperature ([4]; Form C: prolonged period, e.g. 30 days): does not induce this phase change
- solid form changes at elevated temperature ([4]; Temperature Controlled XRPD): do not show solid form changes
- solubility in simulated gastric fluid (SGF) [5]: considerably improved as compared to Form B

Structure (SMILES): Cc1onc(-c2ccc(F)cc2)c1COc1ccc(C(=O)N2CCS(=O)(=O)CC2)cn1 [gamma-CD inclusion complex ({drug4g}), (1,1-dioxo-1lambda6-thiomorpholin-4-yl)-{6-[3-(4-fluoro-phenyl)-5-methyl-isoxazol-4-ylmethoxy]-pyridin-3-yl]-methanone]
- binding constant (K) (physchem): 510.4 M⁻¹
- initial concentration achieved in dissolution ([5]; SGF and FeSSIF, room temperature, dropped in the first 60 min to a level comparable to polymorph C): much higher initial concentration
